Data: PubChem BioAssay AID1963863 (Molecular Pharmacology Branch, DTP, NCI, 2024)

System: 931267-113-T-J1-PDC KRAS spheroid with HUVEC/MSC, viability
Test: Anticancer human tumor 931267-113-T-J1-PDC patient-derived colon adenocarcinoma cell line growth inhibition [KRAS2]
Details: for IC50: curve of first compound; for viability, T/C: stronger effect = lower value
How it was run: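 Combination screen of spheroid viability in tumor-cell co-cultures with endothelial (HUVEC) and mesenchymal stem cell stroma. Each agent was tested in half-log dilutions, topping at clinical Cmax or at 10 microM without a known Cmax.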

[1] = second compound 0.1 µM, first compound 0.000316 µM
[2] = second compound 0.1 µM, first compound 0.001 µM
[3] = second compound 0.1 µM, first compound 0.00316 µM
[4] = second compound 0.1 µM, first compound 0.01 µM
[5] = second compound 0.1 µM, first compound 0.0316 µM
[6] = second compound 0.316 µM, first compound 0.000316 µM
[7] = second compound 0.316 µM, first compound 0.001 µM
[8] = second compound 0.316 µM, first compound 0.00316 µM
[9] = second compound 0.316 µM, first compound 0.01 µM
[10] = second compound 0.316 µM, first compound 0.0316 µM
[11] = second compound 1 µM, first compound 0.000316 µM
[12] = second compound 1 µM, first compound 0.001 µM
[13] = second compound 1 µM, first compound 0.00316 µM
[14] = second compound 1 µM, first compound 0.01 µM
[15] = second compound 1 µM, first compound 0.0316 µM
[16] = second compound 3.16 µM, first compound 0.000316 µM
[17] = second compound 3.16 µM, first compound 0.001 µM
[18] = second compound 3.16 µM, first compound 0.00316 µM
[19] = second compound 3.16 µM, first compound 0.01 µM
[20] = second compound 3.16 µM, first compound 0.0316 µM
[21] = second compound 10 µM, first compound 0.000316 µM
[22] = second compound 10 µM, first compound 0.001 µM
[23] = second compound 10 µM, first compound 0.00316 µM
[24] = second compound 10 µM, first compound 0.01 µM
[25] = second compound 10 µM, first compound 0.0316 µM
[26] = second compound 0.1 µM, first compound 0.1 µM
[27] = second compound 0.316 µM, first compound 0.1 µM
[28] = second compound 1 µM, first compound 0.1 µM
[29] = second compound 3.16 µM, first compound 0.1 µM
[30] = second compound 10 µM, first compound 0.1 µM
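Note: compound exposure lasted 7 days before the readout.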
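Throughout, for viability, T/C: 100% = DMSO vehicle control viability.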

CC(=O)Nc1cccc(-n2c(=O)n(C3CC3)c(=O)c3c(Nc4ccc(I)cc4F)n(C)c(=O)c(C)c32)c1 + CNCc1ccccc1-c1csc(C(C)Nc2nc(C)nc3cc(OC)c(OC)cc23)c1
IC50 (second compound 0.1 µM): 9.09 nM | IC50 (second compound 0.316 µM): 6.7 nM | IC50 (second compound 1 µM): < 0.1 nM | IC50 (second compound 3.16 µM): < 0.1 nM | IC50 (second compound 10 µM): < 0.1 nM | viability, T/C (second compound 0.1 µM, first compound 0.0001 µM): 86.5% | viability, T/C [1]: 89.1% | viability, T/C [2]: 75.8% | viability, T/C [3]: 59.7% | viability, T/C [4]: 56% | viability, T/C [5]: 14.1% | viability, T/C (second compound 0.316 µM, first compound 0.0001 µM): 91.8% | viability, T/C [6]: 111% | viability, T/C [7]: 83.3% | viability, T/C [8]: 60.8% | viability, T/C [9]: 47.8% | viability, T/C [10]: 25.3% | viability, T/C (second compound 1 µM, first compound 0.0001 µM): 50.4% | viability, T/C [11]: 17% | viability, T/C [12]: 1.23% | viability, T/C [13]: 10.3% | viability, T/C [14]: 2.02% | viability, T/C [15]: 1.26% | viability, T/C (second compound 3.16 µM, first compound 0.0001 µM): 1.06% | viability, T/C [16]: 0.32% | viability, T/C [17]: 0.34% | viability, T/C [18]: 0.19% | viability, T/C [19]: 0.19% | viability, T/C [20]: 0.41% | viability, T/C (second compound 10 µM, first compound 0.0001 µM): 0.57% | viability, T/C [21]: 0.16% | viability, T/C [22]: 0.14% | viability, T/C [23]: 0.13% | viability, T/C [24]: 0.15% | viability, T/C [25]: 2.55%

CN(C)C/C=C/C(=O)Nc1cc2c(Nc3ccc(F)c(Cl)c3)ncnc2cc1O[C@H]1CCOC1 + CNCc1ccccc1-c1csc(C(C)Nc2nc(C)nc3cc(OC)c(OC)cc23)c1
IC50 (second compound 0.1 µM): > 100 nM | IC50 (second compound 0.316 µM): > 100 nM | IC50 (second compound 1 µM): 0.489 nM | IC50 (second compound 3.16 µM): 2.02 nM | IC50 (second compound 10 µM): < 0.316 nM | viability, T/C [1]: 88% | viability, T/C [2]: 80.3% | viability, T/C [3]: 90.3% | viability, T/C [4]: 97.7% | viability, T/C [5]: 78% | viability, T/C [26]: 88% | viability, T/C [6]: 114% | viability, T/C [7]: 104% | viability, T/C [8]: 106% | viability, T/C [9]: 76.7% | viability, T/C [10]: 78.4% | viability, T/C [27]: 79.8% | viability, T/C [11]: 69.9% | viability, T/C [12]: 12.7% | viability, T/C [13]: 16.5% | viability, T/C [14]: 21.8% | viability, T/C [15]: 33.7% | viability, T/C [28]: 1.43% | viability, T/C [16]: 94.4% | viability, T/C [17]: 108% | viability, T/C [18]: 0.36% | viability, T/C [19]: 0.29% | viability, T/C [20]: 68.5% | viability, T/C [29]: 0.32% | viability, T/C [21]: 0.23% | viability, T/C [22]: 0.22% | viability, T/C [23]: 0.24% | viability, T/C [24]: 0.45% | viability, T/C [25]: 0.17% | viability, T/C [30]: 0.22%

COC(=O)c1ccc2c(C(=Nc3ccc(N(C)C(=O)CN4CCN(C)CC4)cc3)c3ccccc3)c(O)[nH]c2c1 + CNCc1ccccc1-c1csc(C(C)Nc2nc(C)nc3cc(OC)c(OC)cc23)c1
IC50 (second compound 0.1 µM): 480 nM | IC50 (second compound 0.316 µM): 356 nM | IC50 (second compound 1 µM): 452 nM | IC50 (second compound 3.16 µM): < 31.6 nM | IC50 (second compound 10 µM): < 31.6 nM | viability, T/C [5]: 65.7% | viability, T/C [26]: 81% | viability, T/C (second compound 0.1 µM, first compound 0.316 µM): 58% | viability, T/C (second compound 0.1 µM, first compound 1 µM): 31% | viability, T/C (second compound 0.1 µM, first compound 3.16 µM): 0.36% | viability, T/C (second compound 0.1 µM, first compound 10 µM): 0.19% | viability, T/C [10]: 76.5% | viability, T/C [27]: 86.1% | viability, T/C (second compound 0.316 µM, first compound 0.316 µM): 55.6% | viability, T/C (second compound 0.316 µM, first compound 1 µM): 2.09% | viability, T/C (second compound 0.316 µM, first compound 3.16 µM): 0.23% | viability, T/C (second compound 0.316 µM, first compound 10 µM): 0.33% | viability, T/C [15]: 84.5% | viability, T/C [28]: 99.3% | viability, T/C (second compound 1 µM, first compound 0.316 µM): 72% | viability, T/C (second compound 1 µM, first compound 1 µM): 2.29% | viability, T/C (second compound 1 µM, first compound 3.16 µM): 0.7% | viability, T/C (second compound 1 µM, first compound 10 µM): 0.32% | viability, T/C [20]: 0.3% | viability, T/C [29]: 0.33% | viability, T/C (second compound 3.16 µM, first compound 0.316 µM): 0.17% | viability, T/C (second compound 3.16 µM, first compound 1 µM): 0.16% | viability, T/C (second compound 3.16 µM, first compound 3.16 µM): 0.15% | viability, T/C (second compound 3.16 µM, first compound 10 µM): 0.2% | viability, T/C [25]: 0.24% | viability, T/C [30]: 0.28% | viability, T/C (second compound 10 µM, first compound 0.316 µM): 0.13% | viability, T/C (second compound 10 µM, first compound 1 µM): 0.12% | viability, T/C (second compound 10 µM, first compound 3.16 µM): 0.14% | viability, T/C (second compound 10 µM, first compound 10 µM): 0.29%
